Test results reported in patent publication US11845803B2, “Combination therapies for treatment of BCMA-related cancers and autoimmune disorders” (Fred Hutchinson Cancer Center, priority 2017, dated 2023).

Assays:
[1] = tested on: CD138+ primary myeloma cells; experiment: Surface BCMA and other surface molecules on primary patient myeloma cells incubated with GSI, flow cytometry; format: cell-based, human
Protocol: (N) Fold change in BCMA on primary myeloma cells (n=7) cultured with vary amounts of GSI for 4 h. Primary and cell lines were cultured at 0.5×10^6 cells/mL. Fold change in BCMA is defined as Treated (MFIBCMA-MFIiso)/Control (MFIBCMA-MFIiso). Data is representative of 3 independent experiments with T cells derived from different donors. […] (R) CD138+ primary myeloma cells were enriched from patient bone marrow samples, incubated for 3 hours in the presence of various concentrations of GSI RO429097 (0.01 μM to 10 μM) and evaluated for surface BCMA expression by flow cytometry. BCMA mean fluorescence intensity (MFI) on tumor cells is presented as fold increase over that observed on tumor cells incubated without RO429097. There is an observed dose dependent upregulation of BCMA. The effect of GSI on BCMA expression was then tested on primary myeloma samples from patients. CD138^+ myeloma cells were enriched from patient bone marrow samples, incubated for 3 hours in the presence of various concentrations of GSI RO429097 (0.01 μM to 10 μM) and evaluated for surface BCMA expression by flow cytometry (FIGS. 3M and 3R). BCMA mean fluorescence intensity (MFI) on tumor cells is presented as fold increase over tumor cells incubated without RO4929097.

[2] = tested on: primary human myeloma tumor cells; experiment: BCMA-specific T-ChARM T cells co-cultured with primary myeloma cells in the presence of GSI (cytokines, proliferation); format: cell-based
Protocol: (A) IL-2 production by BCMA CAR-T cells (BCMA-specific T-ChARM C11 3ST-CD28 and BCMA-specific T-ChARM C11 3ST-41BB) or control CD19sh CAR (short spacer)-T cells co-cultured with primary human myeloma tumor cells for 24 hours alone or with various concentrations of GSI RO429097 (0.003 μM to 3.0 μM).
(B) IFN-γ production by BMCA T-ChARM T cells co-cultured with myeloma cells at various concentrations of RO429097.
(O) Intracellular staining showing IFN-γ production (y-axis) and CD8 expression (x-axis) by T-ChARM T cells of the present disclosure cultured with primary MM cells from 2 patients in the absence (0 μM; left panels) or presence (1 μM; right panels) of GSI RO4929097.
(P) IFN-γ production (geometric mean fluorescence intensity (gMFI)) by T-ChARM T cells of the present disclosure cultured with primary MM cells in the presence of the indicated concentration of RO4929097 (x-axis).
(Q) IFN-γ production (normalized MFI; y-axis) by T-ChARM T cells of the present disclosure cultured with primary MM cells in the presence of the indicated concentration of RO4929097 (x-axis).
(R) Proliferation of T-ChARM T cells of the present disclosure in the presence of primary MM cells that were untreated (grey shading) or treated with 1.0 μM GSI RO4929097.
To examine the effect of a GSI on CAR T cell activity against BCMA^+ multiple myeloma, IL-2 production by BCMA CAR-T cells (BCMA-specific T-ChARM C11 3ST-CD28 and BCMA-specific T-ChARM C11 3ST-41BB) or control CD19sh CAR (short spacer)-T cells was measured after co-culture with primary human myeloma tumor cells for 24 hours in media containing at various concentrations of GSI RO429097 (0.003 μM to 3.0 μM) (FIG. 4A).
Next, the effect of GSI on T cell functionality of T cells containing a BCMA-specific T-ChARM was examined.

MM cell lines = experiment: Viability of MM cell lines cultured in GSI, propidium iodide staining; format: cell-based, human; settings: 1.0 μM in culture
Protocol: (L) Viability of indicated MM-expressing cells as measured by propidium iodide staining of cell lines cultured in 1 μM GSI.
Next, the effect of removing GSI from MM cell culture was examined. […] Finally, the viability of the tested MM cell lines was not affected by addition of 1.0 μM RO429097 to culture (FIG. 3L).

[3] = tested on: myeloma cell lines (MM1.R, U266 and 8226); experiment: Soluble BCMA (sBCMA) in culture supernatant of myeloma cell lines with GSI, ELISA; format: cell-based, human
Protocol: (I) U266 myeloma cells were washed and plated in culture media in the presence of various concentrations of GSI RO429097 (0.01 μM, 0.1 μM and 1.0 μM). The media supernatant was harvested after 1, 3, 5 and 24 hours and assayed for soluble BCMA (sBCMA) by ELISA. […] To test the effect of GSI on BCMA shedding in MM, three different myeloma cell lines (MM1.R, U266 and 8226) were washed and plated in culture media for 24 hours in the presence of various concentrations of GSI RO429097 (0.01 μM, 0.1 μM and 1.0 μM). The media supernatant was harvested and assayed for sBCMA by ELISA. sBCMA levels decreased in the supernatant in the presence of a GSI in a dose dependent manner (FIGS. 3G & 3H). To examine the effect on soluble BCMA (sBCMA) levels over time, U266 cells were washed and plated in culture media for 1, 3, 5 and 24 hours in the presence of various concentrations of GSI RO429097 (0.01 μM, 0.1 μM and 1.0 μM). The media supernatant was harvested and assayed for soluble BCMA (sBCMA) by ELISA. […] Next, the effect of removing GSI from MM cell culture was examined. […] Finally, the viability of the tested MM cell lines was not affected by addition of 1.0 μM RO429097 to culture (FIG. 3L).

primary human T cells = experiment: Primary human T cell viability in GSI, trypan blue dye exclusion; format: cell-based; settings: 0.01 μM to 100 μM; 24 hours
Protocol: (B) Primary human T cells were cultured in GSI RO4929097 at concentrations ranging from 0.01 μM to 100 μM and viability was measured by trypan blue dye exclusion after 24 hours. There was no effect of GSI, at any concentration, on T cell viability.

CC(C)(C(=O)NCC(F)(F)C(F)(F)F)C(=O)N[C@@H]1C(=O)Nc2ccccc2-c2ccccc21 [RO4929097]
surface BCMA (MFI, fold increase) on primary myeloma cells ([1]; 3 hours, 0.01 μM to 10 μM): dose-dependent upregulation
levels of other cell surface molecules (CS1, CD86, PD-L1, CD80, CD38) ([1]; primary myeloma cells, various GSI concentrations): no effect
IL-2 production by BCMA T-ChARM T cells ([2]; 24 hours co-culture, GSI 0.003 μM to 3.0 μM): dose dependent increase
proliferation of CFSE-labeled BCMA-specific T-ChARM T cells ([2]; 3 days co-culture with primary myeloma cells): increased in a dose dependent manner
IFN-γ production and CD8 expression by co-cultured T-ChARM T cells ([2]; GSI treatment of primary myeloma tumor samples): greatly improved
IFNγ production by BCMA T-ChARM T cells ([2]; co-culture with myeloma cells, various GSI concentrations): increased
proliferation of T-ChARM T cells ([2]; primary MM cells treated with 1.0 μM GSI vs untreated): increased proliferation
GSI concentration at which effects on T-ChARM T cell IFN-γ were seen ([2]; primary myeloma tumor samples): ≥ 0.1 µM
viability of MM cell lines (MM cell lines): not affected
effect of GSI on surface BCMA shedding (reversibility) ([3]; 1.0 μM GSI removed or continued): reversible inhibitory effect
sBCMA levels in supernatant ([3]; MM1.R, U266 and 8226, 24 hours, 0.01, 0.1 and 1.0 μM): decreased
GSI concentration at which BCMA release into supernatant was decreased ([3]; U266, 1, 3, 5 and 24 hours): at least 0.01 μM
soluble BCMA levels in supernatant over time ([3]; U266, 1, 3, 5 and 24 hours, 0.01, 0.1 and 1.0 μM): dose-dependent decrease
supernatant sBCMA following removal of GSI ([3]; after removal of 1.0 μM GSI vs continued GSI): increased when the GSI was removed
T cell viability (primary human T cells): no effect
